ChEMBL document CHEMBL1201862, “PubChem BioAssay data set” (2004)
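Five compound concentrations were applied to cells in 96-well plates for 48 hours; endpoints were derived by simple linear interpolation of the resulting dose-response curve. GI50 is the concentration that inhibits growth by half.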 The source made the active and inactive calls. Cut-off read from the data, not from the text of the source: active = GI50 up to about 1.1 µM and inactive = higher.

Assays:
Assay in all cases: inhibition of tumour cell growth, NCI panel, 48 h
[1] = tested on: PC-3
[2] = tested on: HOP-92
[3] = tested on: SK-MEL-2
[4] = tested on: UACC-257
[5] = tested on: HL-60
[6] = tested on: RPMI-8226
[7] = tested on: Hs-578T
[8] = tested on: NCI-H522
[9] = tested on: A549
[10] = tested on: SK-MEL-5
[11] = tested on: K562
[12] = tested on: SF-539
[13] = tested on: SK-OV-3
[14] = tested on: SNB-78
[15] = tested on: A498
[16] = tested on: NCI-H226
[17] = tested on: SN12C
[18] = tested on: MDA-MB-231
[19] = tested on: M14
[20] = tested on: HCT-15

NC(Cc1ccc2oc3cc(=O)c4ccccc4c-3nc2c1)C(=O)O (stereo not drawn)
GI50 [1]: > 83 µM (inactive) | GI50 [2]: > 78.7 µM (inactive) | GI50 [3]: 22.6 µM (inactive) | GI50 [4]: 20.5 µM (inactive) | GI50 [5]: 40.8 µM (inactive) | GI50 [6]: 42.2 µM (inactive) | GI50 [7]: 11.7 µM (inactive) | GI50 [8]: 39.8 µM (inactive) | GI50 [9]: 16.7 µM (inactive) | GI50 [10]: 4.92 µM (inactive) | GI50 [11]: 34.2 µM (inactive) | GI50 [12]: 20.3 µM (inactive) | GI50 [13]: > 100 µM (inactive) | GI50 [14]: > 100 µM (inactive) | GI50 [15]: 70.6 µM (inactive) | GI50 [16]: 27.3 µM (inactive) | GI50 [17]: 16.4 µM (inactive) | GI50 [18]: > 79.6 µM (inactive) | GI50 [19]: 12.5 µM (inactive) | GI50 [20]: 17.8 µM

COc1cccc2c1C1(O)C2CCCCCCCCCC12OCCCO2 (stereo not drawn)
GI50 [1]: 6.44 µM (inactive) | GI50 [3]: > 40.5 µM (inactive) | GI50 [4]: > 69.2 µM (inactive) | GI50 [5]: 5.66 µM (inactive) | GI50 [6]: 7.29 µM (inactive) | GI50 [7]: > 100 µM (inactive) | GI50 [8]: > 50.2 µM (inactive) | GI50 [9]: > 34.5 µM (inactive) | GI50 [10]: 21.6 µM (inactive) | GI50 [11]: 6.19 µM (inactive) | GI50 [12]: 8.38 µM (inactive) | GI50 [13]: > 45.3 µM (inactive) | GI50 [14]: > 100 µM (inactive) | GI50 [15]: > 58.2 µM (inactive) | GI50 [16]: > 47.9 µM (inactive) | GI50 [17]: > 49.7 µM (inactive) | GI50 [18]: 33 µM (inactive) | GI50 [19]: > 58.1 µM (inactive) | GI50 [20]: 4.93 µM

C/C(=N\N=C(N)N)c1sc(-c2nc(C)c(/C(C)=N/N=C(N)N)s2)nc1C
GI50 [2]: > 100 µM (inactive) | GI50 [3]: > 100 µM (inactive) | GI50 [4]: > 100 µM (inactive) | GI50 [5]: 24.4 µM (inactive) | GI50 [6]: 39.3 µM (inactive) | GI50 [8]: 36 µM (inactive) | GI50 [9]: > 100 µM (inactive) | GI50 [10]: > 100 µM (inactive) | GI50 [11]: > 67.8 µM (inactive) | GI50 [12]: > 100 µM (inactive) | GI50 [13]: > 100 µM (inactive) | GI50 [14]: > 100 µM (inactive) | GI50 [15]: > 100 µM (inactive) | GI50 [16]: > 100 µM (inactive) | GI50 [17]: > 100 µM (inactive) | GI50 [19]: > 100 µM (inactive) | GI50 [20]: > 46 µM

Clc1ccc(-n2nnc(C3=NCCN3)c2-c2ccccc2)cc1
GI50 [2]: 68.7 µM (inactive) | GI50 [3]: > 100 µM (inactive) | GI50 [4]: > 100 µM (inactive) | GI50 [5]: > 100 µM (inactive) | GI50 [6]: > 100 µM (inactive) | GI50 [8]: > 100 µM (inactive) | GI50 [9]: > 100 µM (inactive) | GI50 [10]: 86.9 µM (inactive) | GI50 [11]: > 100 µM (inactive) | GI50 [12]: > 100 µM (inactive) | GI50 [13]: > 100 µM (inactive) | GI50 [14]: > 100 µM (inactive) | GI50 [15]: > 100 µM (inactive) | GI50 [16]: > 100 µM (inactive) | GI50 [17]: > 100 µM (inactive) | GI50 [19]: > 100 µM (inactive) | GI50 [20]: > 100 µM
